Results published in ChEMBL document CHEMBL4049435, “Development of a Series of Kynurenine 3-Monooxygenase Inhibitors Leading to a Clinical Candidate for the Treatment of Acute Pancreatitis” (J Med Chem, 2017).

What was measured:
[1] = target: T1, Kynurenine 3-monooxygenase (Homo sapiens, UniProt O15229)
Target sequence in this assay (O15229 whole entry, looked up): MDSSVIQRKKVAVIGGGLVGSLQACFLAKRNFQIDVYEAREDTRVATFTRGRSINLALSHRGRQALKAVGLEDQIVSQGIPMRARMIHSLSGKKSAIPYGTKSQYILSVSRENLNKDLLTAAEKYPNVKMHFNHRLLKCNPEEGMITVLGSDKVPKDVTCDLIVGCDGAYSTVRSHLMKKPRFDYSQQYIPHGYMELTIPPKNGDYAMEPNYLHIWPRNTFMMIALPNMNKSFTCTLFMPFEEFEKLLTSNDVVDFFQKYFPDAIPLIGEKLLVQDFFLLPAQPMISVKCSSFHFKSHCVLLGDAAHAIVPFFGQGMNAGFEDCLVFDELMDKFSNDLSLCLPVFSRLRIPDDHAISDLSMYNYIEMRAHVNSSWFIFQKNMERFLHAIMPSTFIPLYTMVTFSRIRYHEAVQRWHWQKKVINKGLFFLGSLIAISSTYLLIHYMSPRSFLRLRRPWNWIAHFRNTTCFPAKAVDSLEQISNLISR

[2] = Protein binding in human plasma; format: ADME, cell-free; conditions: read-out: PPB (converted)
[3] = target: T1, Kynurenine 3-monooxygenase; test: Inhibition of full length human GST-tagged KMO expressed in baculovirus infected Sf9 insect cell membranes using kynurenine as substrate measured after 1 hr by RapidFire high-throughput mass spectrometric analysis
Target sequence in this assay (O15229 whole entry): as the sequence (O15229 whole entry, looked up) above

[4] = Solubility of the compound in saline measured after 24 hrs; format: physicochemical
[5] = target: T1, Kynurenine 3-monooxygenase; remark: listed apart in the source
Target sequence in this assay (O15229 whole entry): as the sequence (O15229 whole entry, looked up) above

[6] = Lipophilicity, log D of the compound at pH 7.4 by RP-HPLC analysis; format: physicochemical; conditions: buffer
serum albumin = serum albumin (Homo sapiens, UniProt P02768); test: Binding affinity to human serum albumin by HPLC analysis; format: ADME; conditions: read-out: PB (converted)
Sequence of serum albumin (P02768 whole entry): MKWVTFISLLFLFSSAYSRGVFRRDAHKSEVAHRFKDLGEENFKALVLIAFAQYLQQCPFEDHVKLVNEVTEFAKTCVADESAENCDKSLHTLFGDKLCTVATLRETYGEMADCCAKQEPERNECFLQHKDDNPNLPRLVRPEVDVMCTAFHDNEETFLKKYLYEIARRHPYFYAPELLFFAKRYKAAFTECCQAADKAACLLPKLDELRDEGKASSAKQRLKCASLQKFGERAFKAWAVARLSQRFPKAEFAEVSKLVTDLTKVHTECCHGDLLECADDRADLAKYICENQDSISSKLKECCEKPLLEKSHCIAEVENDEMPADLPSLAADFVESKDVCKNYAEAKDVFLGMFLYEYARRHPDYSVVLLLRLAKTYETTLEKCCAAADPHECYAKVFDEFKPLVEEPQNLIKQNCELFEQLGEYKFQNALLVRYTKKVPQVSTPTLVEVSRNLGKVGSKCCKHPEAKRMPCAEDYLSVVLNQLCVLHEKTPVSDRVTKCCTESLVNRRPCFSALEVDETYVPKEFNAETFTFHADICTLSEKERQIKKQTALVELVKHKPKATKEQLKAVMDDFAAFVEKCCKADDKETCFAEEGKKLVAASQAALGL

[7] = Permeability of the compound by PAMPA; format: physicochemical; conditions: read-out: permeability

SMILES | T1/2 [1] [h] | fraction unbound [2] | IC50 [3] [nM] | solubility at 24 h [4] [µg/mL] | IC50 [5] [nM] | logD [6] | fraction unbound (serum albumin) | Papp [7] [×10⁻⁶ cm/s]
C[C@@H](Oc1cc2oc(=O)n(CCC(=O)O)c2cc1Cl)c1ccccn1 | 2 |  |  |  |  |  |  | 
NC(CO)(CO)CO.O=C(O)CCn1c(=O)oc2cc(OCc3ccccn3)c(Cl)cc21 |  | 0.074 | 3.16 |  | 5010 | 1.32 | 0.126 | 1.1
O=C(O)CCn1c(=O)oc2cc(OCc3ccccn3)c(Cl)cc21 | 0.5 |  |  |  |  |  |  | 

Other lines, results leading:

T1/2 [1] [h] | fraction unbound [2] | IC50 [3] [nM] | solubility at 24 h [4] [µg/mL] | IC50 [5] [nM] | logD [6] | fraction unbound (serum albumin) | Papp [7] [×10⁻⁶ cm/s] | SMILES
 | 0.04 | 10 | > 2060 | 1580 | 2.09 | 0.038 | 1.9 | NC(CO)(CO)CO.O=C(O)CCn1c(=O)oc2cc(OCC3CC3)c(Cl)cc21
 | 0.031 | 3.16 | > 2400 | 1260 | 1.64 | 0.057 | 1.5 | NC(CO)(CO)CO.O=C(O)CCn1c(=O)oc2cc(OC3CC3)c(Cl)cc21
